In patent US9221870B2, “Crystal form of an organic compound and process for the preparation thereof” (Richter Gedeon Nyrt., priority 2009, dated 2015):
In brackets after ≈: the same amount, converted by molar mass.

How the values were obtained:
Type in all cases: physicochemical
[1] = Fast stability test (storage on a plate at 40° C. in air, impurity by HPLC); conditions: for Impurity / N-demethyl-derivative of CDB-4124: HPLC; for Impurity, Σ (increase Day 0 to Day 10) / N-demethyl-derivative of CDB-4124, Σ (increase Day 0 to Day 10): Σ over 10 days, in the presence of air
Description: Amorphous and crystalline forms were stored on a plate at 40° C. in the presence of air for 10 days. Impurity was measured at different times using an HPLC equipment. […]

[2] = Solubility at 25° C. in solvent (MeOH)
Excerpt: Form I is a monotropic modification of CDB-4124 such as Form II. […] Furthermore, Form I can be transformed into Form II via crystallization from different medium.

[3] = Water adsorption by dynamic vapour sorption (DVS); conditions: 25° C., 0%-95% relative humidity, adsorption-desorption
Description: Water adsorption properties of the crystalline Form II of CDB-4124 were measured by dynamic vapour sorption technique (DVS). […]

Compound | Impurity ([1]; Day 0, in the presence of air) [%] | N-demethyl-derivative of CDB-4124 ([1]; Day 0, in the presence of air) [%] | Impurity ([1]; Day 1, in the presence of air) [%] | N-demethyl-derivative of CDB-4124 ([1]; Day 1, in the presence of air) [%] | Impurity ([1]; Day 2, in the presence of air) [%] | N-demethyl-derivative of CDB-4124 ([1]; Day 2, in the presence of air) [%] | Impurity ([1]; Day 6, in the presence of air) [%] | N-demethyl-derivative of CDB-4124 ([1]; Day 6, in the presence of air) [%] | Impurity ([1]; Day 10, in the presence of air) [%] | N-demethyl-derivative of CDB-4124 ([1]; Day 10, in the presence of air) [%] | Impurity, Σ (increase Day 0 to Day 10) [1] [%] | N-demethyl-derivative of CDB-4124, Σ (increase Day 0 to Day 10) [1] [%] | solubility [2] [mg/mL] | change of mass as the degree of humidity was increased [3]
COCC(=O)[C@@]1(OC(C)=O)CC[C@H]2[C@@H]3CCC4=CC(=O)CCC4=C3[C@@H](c3ccc(N(C)C)cc3)C[C@@]21C [Amorphous form, 17α-acetoxy-21-methoxy-11β-[4-N,N-dimethylaminophenyl]-19-norpregna-4,9-diene-3,20-dione, reference compound] | 0.87 | 0.15 | 0.97 | 0.21 | 1.03 | 0.25 | 1.63 | 0.55 | 1.97 | 0.73 | 1.1 | 0.58 | – | –
COCC(=O)[C@@]1(OC(C)=O)CC[C@H]2[C@@H]3CCC4=CC(=O)CCC4=C3[C@@H](c3ccc(N(C)C)cc3)C[C@@]21C [Form I, 17α-acetoxy-21-methoxy-11β-[4-N,N-dimethylaminophenyl]-19-norpregna-4,9-diene-3,20-dione, reference compound] | – | – | – | – | – | – | – | – | – | – | – | – | 500 (≈ 989 mM) | –
COCC(=O)[C@@]1(OC(C)=O)CC[C@H]2[C@@H]3CCC4=CC(=O)CCC4=C3[C@@H](c3ccc(N(C)C)cc3)C[C@@]21C [Form II, 17α-acetoxy-21-methoxy-11β-[4-N,N-dimethylaminophenyl]-19-norpregna-4,9-diene-3,20-dione] | 0.14 | 0.02 | 0.14 | 0.02 | 0.14 | 0.02 | 0.15 | 0.02 | 0.17 | 0.03 | 0.03 | 0.01 | 23 (≈ 45.5 mM) | barely changed
